# Assays:
# [1] = system: Cannabis (Cs) apical cuttings; experiment: Plant growth regulators delivered with ONB in hydroponics, plant growth; type: in vivo, Cannabis sativa; conditions: ONB compared to tap water as delivery system; 14 days hydroponics
# Procedure: Hydroponic experiments were set up in glasshouse conditions: day temp. 25° C., night temp. 18° C., 16/8 h day/night and 150 μmol m^−2 s^−1 light intensity. Cannabis (Cs) apical cuttings were treated with Gibberellic acid A3 (GA3; Duchefa, G0907) at 12 mg/L final concentration, similar to Mansouri et al. (2011) or with DL-carnitine hydrochloride (Merck S7021474 Cas-No 461-05-2, 8.41774.0025) at 1 mM/L final concentration, as in Signem Oney-Birol (2019).
# All solutions were prepared first in buckets, pH adjusted to 6.0. The liquid feed (Canna coco A+B) was added at the concentration: 4 mL of coco A and 4 mL of coco B per 1 L water; electric conductivity EC=2.0 mS/cm. Next the solutions were run through a fine bubble generator (Anzaikantetsu Co, AZ-FB-20ASVV) with a 0.75 standard litres per minute (SLPM) O2 flow and 800 L/H water flow. Each 25 L bucket was run for 30 min through the nozzle. EC and pH were checked and adjusted to the right level daily. Plants were grown in hydroponics for 14 days. Plant growth was monitored and compared to controls. Plant growth was determined by measurement of major growth parameters including plant height, whole plant fresh weight and number of stems. […]
# lettuce (Lactuca sativa) = experiment: Ultrasonic fogging of leaves with air nanobubble water, fresh weight; type: in vivo; conditions: var. Tango, 14 days, fog from air nanobubble water, source solution 1.65 mg/L
# Procedure: Seedlings of various lettuce varieties (Lactuca sativa) were exposed to ultrasonic fog generated from water that contained air nanobubbles carrying MVOCs.
# Albuterol Sulfate 98.5% (Spectrum Chemical, New Brunswick, NJ, USA) was diluted in tap water at 1.65 mg/L. Five litres was then placed in a container that was pressurized by an air compressor at 1.3 bar. Gas flow from the pressurized container was directed to a nanobubble generator installed in a recirculating flow of water totaling 60 L. After a minimum of 2 hr treatment, 4 L of nanobubble treated water was removed from the recirculating system and placed in a rectangular plastic reservoir with a total capacity of 6 L. A three head ultrasonic fog generator was then placed in the reservoir, and the reservoir was placed in an enclosed plant growth chamber. Seeds of lettuce (Lactuca sativa, var. Tango) were planted in 2.5 cm square cells filled with ProMix growing media. Upon shoot emergence, seedlings were placed in the growth chamber and fog treatments began. A ‘control’ group of plants was placed in a different section of the growth chamber that was not subjected to any treatment. Growing parameters within the chambers were maintained at levels suitable for the crop, including a photoperiod of 16 hr/day. […] After 14 days, all plants were harvested and fresh weight recorded.
Molecule,Plant height and biomass [1],Average increase in weight compared to control plants (lettuce (Lactuca sativa))
"C[N+](C)(C)CC(O)CC(=O)O.[Cl-] (racemic) [DL-carnitine, DL-carnitine hydrochloride]",Increased plant height and biomass,
"C=C1C[C@]23C[C@@]1(O)CC[C@H]2[C@@]12C=C[C@H](O)[C@@](C)(C(=O)O1)[C@H]2[C@@H]3C(=O)O [gibberellic acid, Gibberellic acid A3]",Increased plant height and biomass,
Albuterol Sulfate,,over 30%

# Source: US20240093213A1, “PROCESSES, SYSTEMS AND MEDIA FOR DELIVERING A SUBSTANCE TO A PLANT” (EPIGENETICA LIMITED, priority 2020, published 2024)
